This is an account of results in article PMC7664879, “Discovery of 12O—A Novel Oral Multi-Kinase Inhibitor for the Treatment of Solid Tumor” (Molecules, 2020).

In one assay the target is T1, CDK5/p25(h) (Homo sapiens, UniProt Q00535).
T1 construct: purchased Eurofins (KinaseProfiler service)
Briefly: Kinase inhibition assay (Eurofins KinaseProfiler). The settings on record: ATP at Km. In kind it is biochemical. How it is done: (§1) Kinase inhibition profiles were determined using KinaseProfiler services provided by Eurofins, and ATP concentrations used are the Km of corresponding kinases.
(§2) CDK1/cyclinB (h) (CDK2/cyclinA (h), CDK3/cyclinE (h), CDK4/CyclinD(h), CDK5/p25 (h), CDK6/cyclinD3 (h)) were incubated with 8 mM MOPS pH 7.0, 0.2 mM EDTA, 0.1 mg/mL histone H1, 10 mM MgAcetate and [gamma-33P]-ATP (specific activity and concentration as required).
(§3) All the reactions above were initiated by the addition of the Mg/ATP mix. After incubation for 40 min at room temperature, the reaction was stopped by the addition of phosphoric acid to a concentration of 0.5%. An amount of 10 µL of the reaction was then spotted onto a P30 filtermat and washed four times for 4 min in 0.425% phosphoric acid and once in methanol prior to drying and scintillation counting.

For another assay, the target named is T2, CDK2/cyclinA(h) (Homo sapiens, UniProt P24941).
T2 construct: purchased Eurofins (KinaseProfiler service)
As to the kind of experiment: Kinase inhibition assay (Eurofins KinaseProfiler). In kind it is biochemical. The settings on record: ATP at Km. How it is done: as §1, §2, §3

Another assay has as its target T3, CDK1/cyclinB(h) (Homo sapiens, UniProt P06493).
T3 construct: purchased Eurofins (KinaseProfiler service)
As to the kind of experiment: Kinase inhibition assay (Eurofins KinaseProfiler). The settings on record: ATP at Km. In kind it is biochemical. How it is done: as §1, §2, §3

The next assay addresses T4, CDK3/cyclinE(h) (Homo sapiens, UniProt Q00526).
T4 construct: purchased Eurofins (KinaseProfiler service)
As to the kind of experiment: Kinase inhibition assay (Eurofins KinaseProfiler). The following applies: ATP at Km. In kind it is biochemical. How it is done: as §1, §2, §3

The next assay has as its target T5, CDK6/cyclinD3(h) (Homo sapiens, UniProt Q00534).
T5 construct: purchased Eurofins (KinaseProfiler service)
As to the kind of experiment: Kinase inhibition assay (Eurofins KinaseProfiler). In kind it is biochemical. The settings on record: ATP at Km. How it is done:
as §1, §2, §3

The target of another assay is T6, CDK4/cyclinD(h) (Homo sapiens, UniProt P11802).
T6 construct: purchased Eurofins (KinaseProfiler service)
Briefly: Kinase inhibition assay (Eurofins KinaseProfiler). In kind it is biochemical. The settings on record: ATP at Km. How it is done:
as §1, §2, §3

For another assay, the target named is T7, PDGFR-alfa(h) (Homo sapiens, UniProt P16234).
T7 construct: purchased Eurofins (KinaseProfiler service)
As to the kind of experiment: Kinase inhibition assay (Eurofins KinaseProfiler). The settings on record: ATP at Km. In kind it is biochemical. How it is done:
as §1
(§4) PDGFR-alfa(h) [PDGFR-beta(h)] was incubated with 8 mM MOPS pH 7.0, 0.2 mM EDTA, 0.1 mg/mL poly(Glu, Tyr) 4:1, 10 mM MnCl2, 10 mM MgAcetate and [gamma-33P]-ATP.
as §3

The next assay has as its target T8, PDGFR-beta(h) (Homo sapiens, UniProt P09619).
T8 construct: purchased Eurofins (KinaseProfiler service)
As to the kind of experiment: Kinase inhibition assay (Eurofins KinaseProfiler). In kind it is biochemical. The following applies: ATP at Km. How it is done: as §1, §4, §3

The next assay concerns SiHa cells. As to the kind of experiment: Cell cycle assay (propidium iodide, flow cytometry). In kind it is cell-based, human. The settings on record: 0.04 μM, 24 h. How it is done: To understand how 12O inhibited cell proliferation, cell cycle analysis was performed. The effect of 12O on cell cycle distribution was assessed in the SiHa cell lines. […] Of note, 12O at 0.04 μM was able to increase the proportion of the cells in the G2/M phase from approximately 16.0 ± 1.3% (DMSO) to 22.3 ± 0.7%, and decreased the corresponding fraction of the cells in the S phase from about 22.8 ± 0.4 % (DMSO) to 16.1 ± 1.1 % (Figure 3).
Cells were plated on 6-well culture plates at a density of 5 × 10^5 cells/mL. The cells were treated with the indicated concentrations of 12O or ribociclib for 24 h after their adherence. Cells were washed with PBS for three times and then fixed with ice cold 75% ethanol overnight. The fixed cells were then washed with PBS and stained with propidium iodide ([…]) in the presence of RNase A (0.5 mg) for 30 min at 37 °C. The stained cells were then subjected to flow cytometry (Becton Dickinson (BD), San Jose, CA, USA.) for cell cycle analysis.
A general note: Flow cytometry measures light scatter and fluorescence of single cells or particles in a stream.

Another assay relates to H460. Briefly: CCK-8 cell growth inhibition, H460. In kind it is cell-based, human. The following applies: Homo sapiens, NCI-H460; lung cancer; CCK-8 assay, 72-h incubation. How it is done:
(§5) In vitro anticancer screening of all newly synthesized compounds towards human solid tumor cells, cervical (SiHa) and ovarian (SKOV3) cancer cell lines, was carried out by standard CCK-8 assay with cisplatin as the positive control, as cisplatin is one of the most used chemotherapy drugs. […] The compound was further evaluated in a dose response study against a panel of solid tumor cells, including cervical cancer cell lines (SiHa and HeLa), ovarian cancer cell lines (SKOV3 and OVCAR-5), breast cancer cell lines (4T1 and MCF-7), lung cancer cell lines (A549 and H460) to test cytotoxic activity. The IC50 values were summarized in Table 2, including the cytotoxic activity of the cisplatin used as reference compound.
(§6) The viability of cells as determined using the CCK8 assay method. Cells were seeded (2000–3000 cells per well) in 96-well plates. After incubation for 24 h in serum-containing media, the cells were treated with drugs at different concentrations diluted with culture medium for 72 h at 37 °C with a 5% CO2 atmosphere. […] Finally, absorbance values of test wells (AS), control wells (AC) and blank wells (Ab) at 450 nm were read using the Microplate Reader (Promega, WI). Inhibition ratios were calculated as follows: [(AC − AS)/ (AC−Ab)] × 100%. IC50 values were calculated using GraphPad software.
A general note: Formazan colour is commonly taken as a measure of viable cells.

The next assay has as its system MCF-7. Briefly: CCK-8 cell growth inhibition, MCF-7. In kind it is cell-based, human. The settings on record: Homo sapiens, MCF7; breast cancer; CCK-8 assay, 72-h incubation. How it is done: as §5, §6
For another assay, the target named is T9, Src(1-530)(h) (Homo sapiens, UniProt P12931).
T9 construct: Src (1-530) (h) was incubated with; purchased Eurofins (KinaseProfiler service)
Briefly: Kinase inhibition assay (Eurofins KinaseProfiler). In kind it is biochemical. The following applies: ATP at Km. How it is done:
as §1
Src (1-530) (h) was incubated with 8 mM MOPS pH 7.0, 0.2 mM EDTA, 500 uM GGEEEEYFELVKKKK, 10 mM MgAcetate and [gamma-33P]-ATP.
as §3

In another assay the test system is SKOV3 cells. As to the kind of experiment: Colony formation assay, SKOV3. In kind it is cell-based, human. The text has this: Colony formation assay assesses the effect of a therapy on clonogenic survival which is one of the most important parameters of therapy efficacy in oncology. […] We also performed colony formation assay in SKOV3 cells at concentrations according to IC50 values to confirm the result (Figure S3).
Cells treated with indicated compounds or vehicle were washed with PBS, trypsinized, and reseeded into 6-well plates at 500–1000 cells per well. The colonies were allowed to form for 10–15 days. At the end of the culture, cells were washed with PBS, fixed with methanol for 30 min, then stained with 0.5% crystal violet overnight. After careful washing, the images were taken.

The target in a further assay is T10, CDK9/cyclin T1(h) (Homo sapiens, UniProt P50750).
T10 construct: purchased Eurofins (KinaseProfiler service)
As to the kind of experiment: Kinase inhibition assay (Eurofins KinaseProfiler). In kind it is biochemical. The settings on record: ATP at Km. How it is done: as §1
CDK9/cyclinT1 (h) was incubated with 8 mM MOPS pH 7.0, 0.2 mM EDTA, 100 uM […], 10 mM MgAcetate and [gamma-33P]-ATP (specific activity and concentration as required).
as §3

T1 sequence (Q00535 whole entry): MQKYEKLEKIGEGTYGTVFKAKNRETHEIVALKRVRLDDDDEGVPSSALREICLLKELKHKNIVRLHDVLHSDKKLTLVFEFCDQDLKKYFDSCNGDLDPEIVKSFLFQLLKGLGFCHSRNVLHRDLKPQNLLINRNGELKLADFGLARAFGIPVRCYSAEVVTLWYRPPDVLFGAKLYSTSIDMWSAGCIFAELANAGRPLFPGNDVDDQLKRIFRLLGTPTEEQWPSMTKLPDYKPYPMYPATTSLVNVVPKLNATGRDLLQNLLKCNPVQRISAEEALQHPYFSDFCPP
T1 sequence (Q15078 99-307 partner limits assumed): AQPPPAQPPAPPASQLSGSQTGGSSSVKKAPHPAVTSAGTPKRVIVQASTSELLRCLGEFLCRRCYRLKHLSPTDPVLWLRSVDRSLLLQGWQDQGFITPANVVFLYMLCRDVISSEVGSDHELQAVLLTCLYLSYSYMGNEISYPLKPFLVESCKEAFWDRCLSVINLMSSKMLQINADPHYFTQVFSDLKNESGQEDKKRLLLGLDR
T6 sequence (P11802 whole entry): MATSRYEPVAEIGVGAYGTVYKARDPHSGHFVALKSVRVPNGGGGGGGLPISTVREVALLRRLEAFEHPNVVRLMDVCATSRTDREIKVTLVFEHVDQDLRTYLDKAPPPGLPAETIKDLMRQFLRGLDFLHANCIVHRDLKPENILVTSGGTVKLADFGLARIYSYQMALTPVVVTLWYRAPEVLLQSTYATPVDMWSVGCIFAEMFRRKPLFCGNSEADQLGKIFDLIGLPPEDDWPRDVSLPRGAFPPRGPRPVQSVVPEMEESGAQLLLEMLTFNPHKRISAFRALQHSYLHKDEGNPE
T6 sequence (P30281 whole entry partner): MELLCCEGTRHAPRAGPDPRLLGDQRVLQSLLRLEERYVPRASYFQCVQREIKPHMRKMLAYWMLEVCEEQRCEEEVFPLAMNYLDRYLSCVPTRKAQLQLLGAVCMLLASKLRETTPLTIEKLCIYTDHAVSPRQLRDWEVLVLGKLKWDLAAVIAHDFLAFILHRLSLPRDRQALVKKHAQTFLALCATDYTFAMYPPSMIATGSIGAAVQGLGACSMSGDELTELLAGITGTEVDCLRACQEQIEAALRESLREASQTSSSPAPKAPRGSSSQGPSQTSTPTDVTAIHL
T10 sequence (P50750 whole entry): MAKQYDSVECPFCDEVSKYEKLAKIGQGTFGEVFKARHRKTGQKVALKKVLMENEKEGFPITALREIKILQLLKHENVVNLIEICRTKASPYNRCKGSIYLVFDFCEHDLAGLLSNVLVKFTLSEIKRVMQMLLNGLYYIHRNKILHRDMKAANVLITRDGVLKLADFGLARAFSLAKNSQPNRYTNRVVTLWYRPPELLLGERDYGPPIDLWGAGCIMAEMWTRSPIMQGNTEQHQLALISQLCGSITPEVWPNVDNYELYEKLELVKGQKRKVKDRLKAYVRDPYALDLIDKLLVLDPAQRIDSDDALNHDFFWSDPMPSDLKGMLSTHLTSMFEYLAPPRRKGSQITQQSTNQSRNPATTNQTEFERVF
T10 sequence (O60563 whole entry partner): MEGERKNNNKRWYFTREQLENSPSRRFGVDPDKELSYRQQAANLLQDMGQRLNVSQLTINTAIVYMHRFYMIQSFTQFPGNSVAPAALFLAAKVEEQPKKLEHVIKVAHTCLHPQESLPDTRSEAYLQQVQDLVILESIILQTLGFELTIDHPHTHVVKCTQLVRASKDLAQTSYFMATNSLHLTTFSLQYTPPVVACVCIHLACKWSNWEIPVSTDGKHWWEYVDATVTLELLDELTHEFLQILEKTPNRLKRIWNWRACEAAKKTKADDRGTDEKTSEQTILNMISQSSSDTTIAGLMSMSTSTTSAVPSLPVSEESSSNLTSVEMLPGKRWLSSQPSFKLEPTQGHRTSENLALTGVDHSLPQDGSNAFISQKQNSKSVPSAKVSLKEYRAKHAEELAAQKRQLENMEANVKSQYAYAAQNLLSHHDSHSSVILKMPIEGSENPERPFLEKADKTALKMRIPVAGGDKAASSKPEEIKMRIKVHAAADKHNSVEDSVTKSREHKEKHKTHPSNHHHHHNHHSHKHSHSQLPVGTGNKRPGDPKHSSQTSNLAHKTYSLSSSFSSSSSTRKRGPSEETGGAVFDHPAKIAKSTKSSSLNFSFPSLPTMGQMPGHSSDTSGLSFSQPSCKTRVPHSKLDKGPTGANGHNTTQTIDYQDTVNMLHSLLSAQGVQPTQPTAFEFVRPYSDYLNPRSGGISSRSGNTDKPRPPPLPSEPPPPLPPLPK
T3 sequence (P06493 whole entry): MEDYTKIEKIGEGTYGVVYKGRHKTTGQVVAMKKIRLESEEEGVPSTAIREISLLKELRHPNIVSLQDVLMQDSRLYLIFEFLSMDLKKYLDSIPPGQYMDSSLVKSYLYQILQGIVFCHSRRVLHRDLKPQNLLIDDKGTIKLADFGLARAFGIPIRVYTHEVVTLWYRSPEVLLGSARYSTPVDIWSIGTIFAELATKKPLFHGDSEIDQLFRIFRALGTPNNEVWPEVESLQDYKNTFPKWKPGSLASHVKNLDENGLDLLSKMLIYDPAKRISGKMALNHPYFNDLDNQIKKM
T3 sequence (P14635 whole entry partner): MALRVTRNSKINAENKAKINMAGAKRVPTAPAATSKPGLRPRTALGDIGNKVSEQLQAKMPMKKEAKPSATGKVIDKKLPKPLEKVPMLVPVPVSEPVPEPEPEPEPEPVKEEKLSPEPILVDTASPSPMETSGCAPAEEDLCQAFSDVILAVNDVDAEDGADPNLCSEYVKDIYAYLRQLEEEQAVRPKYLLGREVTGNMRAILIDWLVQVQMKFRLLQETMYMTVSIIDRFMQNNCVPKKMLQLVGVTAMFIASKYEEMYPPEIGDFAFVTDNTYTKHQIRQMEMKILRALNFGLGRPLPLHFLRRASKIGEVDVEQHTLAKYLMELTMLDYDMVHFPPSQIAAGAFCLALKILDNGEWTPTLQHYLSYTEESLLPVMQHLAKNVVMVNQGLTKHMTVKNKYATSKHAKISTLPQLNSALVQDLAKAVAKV
T9 sequence (P12931 1-530): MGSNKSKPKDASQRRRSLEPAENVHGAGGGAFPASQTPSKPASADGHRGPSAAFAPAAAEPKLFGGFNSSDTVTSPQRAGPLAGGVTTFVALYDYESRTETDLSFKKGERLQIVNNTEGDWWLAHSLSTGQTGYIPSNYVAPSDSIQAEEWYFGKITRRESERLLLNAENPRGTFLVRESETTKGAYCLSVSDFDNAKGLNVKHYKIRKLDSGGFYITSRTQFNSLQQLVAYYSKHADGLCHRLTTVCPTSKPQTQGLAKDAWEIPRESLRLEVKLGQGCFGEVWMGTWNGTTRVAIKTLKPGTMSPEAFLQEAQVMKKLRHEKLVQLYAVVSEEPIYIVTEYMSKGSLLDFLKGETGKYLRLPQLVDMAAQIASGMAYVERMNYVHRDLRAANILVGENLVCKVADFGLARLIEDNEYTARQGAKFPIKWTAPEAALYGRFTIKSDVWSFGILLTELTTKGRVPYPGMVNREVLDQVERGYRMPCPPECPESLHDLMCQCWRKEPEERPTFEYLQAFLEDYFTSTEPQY
T7 sequence (P16234 24-1089): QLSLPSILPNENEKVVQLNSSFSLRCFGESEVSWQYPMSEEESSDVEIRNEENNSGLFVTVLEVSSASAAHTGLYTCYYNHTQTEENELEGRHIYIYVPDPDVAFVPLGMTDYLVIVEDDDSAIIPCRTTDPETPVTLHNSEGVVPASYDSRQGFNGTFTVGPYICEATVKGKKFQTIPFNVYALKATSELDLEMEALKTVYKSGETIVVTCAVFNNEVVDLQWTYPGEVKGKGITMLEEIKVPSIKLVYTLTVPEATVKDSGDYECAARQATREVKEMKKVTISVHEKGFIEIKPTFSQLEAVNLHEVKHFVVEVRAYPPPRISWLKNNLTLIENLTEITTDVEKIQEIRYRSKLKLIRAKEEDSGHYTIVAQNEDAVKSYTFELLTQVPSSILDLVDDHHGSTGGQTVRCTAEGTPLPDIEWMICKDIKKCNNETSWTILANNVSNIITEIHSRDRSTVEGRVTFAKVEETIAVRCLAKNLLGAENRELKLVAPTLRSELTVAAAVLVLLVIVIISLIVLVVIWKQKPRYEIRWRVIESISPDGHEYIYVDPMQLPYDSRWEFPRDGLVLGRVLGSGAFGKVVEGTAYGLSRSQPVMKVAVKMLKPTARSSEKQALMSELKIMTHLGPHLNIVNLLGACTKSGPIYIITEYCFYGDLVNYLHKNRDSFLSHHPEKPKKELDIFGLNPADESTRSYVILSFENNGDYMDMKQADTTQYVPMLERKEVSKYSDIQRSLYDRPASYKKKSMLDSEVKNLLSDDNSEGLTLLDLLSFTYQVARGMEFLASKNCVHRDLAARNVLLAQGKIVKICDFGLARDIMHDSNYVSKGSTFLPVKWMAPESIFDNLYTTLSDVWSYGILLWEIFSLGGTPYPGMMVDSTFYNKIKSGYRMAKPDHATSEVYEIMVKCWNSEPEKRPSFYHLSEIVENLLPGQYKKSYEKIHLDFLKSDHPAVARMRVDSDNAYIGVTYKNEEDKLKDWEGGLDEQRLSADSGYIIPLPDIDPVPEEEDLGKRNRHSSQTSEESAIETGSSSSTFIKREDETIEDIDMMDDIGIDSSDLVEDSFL
T5 sequence (Q00534 whole entry): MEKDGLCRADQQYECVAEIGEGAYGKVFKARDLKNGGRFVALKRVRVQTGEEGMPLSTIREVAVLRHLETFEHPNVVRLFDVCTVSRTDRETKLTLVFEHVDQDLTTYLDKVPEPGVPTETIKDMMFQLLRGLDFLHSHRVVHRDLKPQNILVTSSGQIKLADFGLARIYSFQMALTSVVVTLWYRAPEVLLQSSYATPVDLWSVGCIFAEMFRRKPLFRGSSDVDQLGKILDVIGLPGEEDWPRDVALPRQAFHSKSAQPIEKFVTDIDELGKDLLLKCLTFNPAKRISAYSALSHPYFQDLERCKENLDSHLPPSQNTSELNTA
T5 sequence (P30281 whole entry partner): as the sequence (P30281 whole entry partner) above

One may read the inhibition as the drop in the measured response relative to a control, in per cent. Usually IC50 stands for the midpoint of a concentration-inhibition curve. Regarding `CC(C)n1nnc2ccc(-c3nc(Nc4ccc(CNC(=O)C5(C(=O)Nc6ccccc6)CC5)cc4)ncc3F)cc21` [12O], the inhibition at 1 µM was 99% at CDK5/p25(h) (1 µM); 99% against CDK2/cyclinA(h) (1 µM); 98% against CDK1/cyclinB(h) (1 µM); 86% against CDK3/cyclinE(h); 74% at CDK6/cyclinD3(h); 91% against CDK4/cyclinD(h) (1 µM). For the same compound, the inhibition at 1 µM is -1% on PDGFR-alfa(h), 12% on PDGFR-beta(h), 46% against Src(1-530)(h) and 100% at CDK9/cyclin T1(h) (1 µM). Further, the IC50 turned out to be 0.006 µM at CDK5/p25(h); 0.005 µM against CDK2/cyclinA(h); 0.01 µM at CDK1/cyclinB(h); 0.157 µM at CDK4/cyclinD(h); 0.041 µM with H460; 0.01 µM in the assay on MCF-7. Further, half-maximal inhibition at CDK9/cyclin T1(h) (IC50) required 0.009 µM. Further, in the assay with SiHa cells (DMSO 16.0 ± 1.3%), the “proportion of the cells in the G2/M phase” value is 22.3 ± 0.7%. The “fraction of the cells in the S phase” value in the assay on SiHa cells (DMSO 22.8 ± 0.4 %) stood at 16.1 ± 1.1%. In addition, in the assay with SKOV3 cells, the “proliferation by colony formation assay” value is “effectively inhibited”.
